Data taken from US20240279302A1, “OLFACTORY RECEPTOR EXPRESSING METHOD AND RESPONSE MEASUREMENT METHOD” (Kao Corporation, priority 2021, published 2024).
Where two headings read alike, the source gives them in different places.

Experiments:
Test in all cases: Luciferase assay, sulfur compounds
Type in all cases: cell-based
consensus OR2T29 = biological target: T1, consensus OR2T29 (Homo sapiens, UniProt Q8NH02, A149V/A76M/C55S/F147L/I190K/I217V/K41M/L14S/L223S/L224F/L249M/L87M/M19V/M302T/M75V/R23S/R6W/S169T/S32C/S61T/T121A/T189M/V229I/V48I/V96I/W176R)
T1 construct: expressed in transfected cells; host or cells: HEK293
T1 sequence (Q8NH02 with tags, fused parts or gaps R6W/L14S/M19V/R23S/S32C/K41M/V48I/C55S/S61T/M75V/A76M/L87M/V96I/T121A/F147L/A149V/S169T/W176R/T189M/I190K/I217V/L223S/L224F/V229I/L249M/M302T): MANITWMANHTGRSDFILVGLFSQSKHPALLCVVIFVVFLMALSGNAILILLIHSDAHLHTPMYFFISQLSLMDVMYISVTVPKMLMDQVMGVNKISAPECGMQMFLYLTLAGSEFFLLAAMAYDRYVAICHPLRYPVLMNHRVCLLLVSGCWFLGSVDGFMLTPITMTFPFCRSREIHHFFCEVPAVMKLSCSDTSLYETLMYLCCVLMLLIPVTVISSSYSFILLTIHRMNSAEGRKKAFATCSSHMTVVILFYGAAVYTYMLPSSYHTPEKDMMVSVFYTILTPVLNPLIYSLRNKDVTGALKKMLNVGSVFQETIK
Protocol: (§1) A reaction solution as to each consensus olfactory receptor prepared in Examples described above was prepared according to the composition shown in Table 4, left standing for 20 minutes in a clean bench, and then added to each well of a 96-well plate (Becton, Dickinson and Company). The original olfactory receptor was used as to OR4S2. Composition shown in Table 20 was used as to OR11H2 and OR4E2. Subsequently, 100 μL of HEK293 cells suspended in DMEM (Nacalai Tesque, Inc.) was inoculated at 2×10^5 cells/cm^2 to each well, and cultured for 24 hours in an incubator kept at 37° C. and 5% CO2. Cells expressing no olfactory receptor (Mock) were provided as a control.
(§2) The medium was removed from the cultures prepared in 1), and 75 μL of a test substance solution (methyl mercaptan (MeSH) (CAS: 74-93-1, Tokyo Chemical Industry Co., Ltd.), dimethyl sulfide (DMS) (CAS: 75-18-3, FUJIFILM Wako Pure Chemical Corp.), dimethyl disulfide (DMDS) (CAS: 624-92-0, Tokyo Chemical Industry Co., Ltd.), concentration range: 0 μM, 1 μM, 3 μM, 10 μM, 30 μM, 100 μM, and 300 μM, or dimethyl trisulfide (DMTS) (CAS: 3658-80-8, Tokyo Chemical Industry Co., Ltd.), concentration range: 0 μM, 0.1 μM, 0.3 μM, 1 μM, 3 μM, 10 μM, and 30 μM) prepared with a fresh medium was added thereto. Under a copper ion addition condition, the test substance solution was adjusted to contain 30 μM copper(II) chloride (FUJIFILM Wako Pure Chemical Corp.) in addition to the odorant. The cells were cultured for 4 hours in a CO2 incubator and the luciferase gene was expressed sufficiently in the cells. Luciferase activity was measured using Dual-Glo™ luciferase assay system (Promega Corp.) in accordance with the operation manual of the product. A luminescence value derived from firefly luciferase induced by test substance stimulation in each well of the 96-well plate was divided by a luminescence value derived from Renilla luciferase to calculate a value (fluc/hRluc) as a signal, which was then used in analysis. The signal under each transfection condition was normalized with the signal value (fluc/hRluc) under an odorant stimulation-free condition defined as 0% and the signal value (fluc/hRluc) by stimulation with 10 μM forskolin defined as 100%, and used as a response (%) in analysis.

consensus OR2T11 = biological target: T2, consensus OR2T11 (Homo sapiens, UniProt Q8NH01)
T2 construct: fused on or other part: N-terminal Flag-Rho tag from the pME18S vector
T2 sequence (Q8NH01 whole entry, looked up, the tested form may be a part): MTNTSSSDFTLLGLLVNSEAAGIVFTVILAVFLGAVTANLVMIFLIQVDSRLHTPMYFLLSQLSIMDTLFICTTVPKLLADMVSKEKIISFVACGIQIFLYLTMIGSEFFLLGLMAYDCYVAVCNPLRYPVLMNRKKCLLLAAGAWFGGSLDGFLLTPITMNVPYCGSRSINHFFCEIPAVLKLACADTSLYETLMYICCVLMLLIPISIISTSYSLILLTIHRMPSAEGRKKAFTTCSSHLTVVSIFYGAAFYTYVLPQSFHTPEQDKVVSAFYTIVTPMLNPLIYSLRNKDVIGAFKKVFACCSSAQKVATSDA
Protocol: as §1, §2

consensus OR2T4 = biological target: T3, consensus OR2T4 (Homo sapiens, UniProt Q8NH00, A104M/A342V/C83S/E340G/F135L/G202R/G259R/I245V/L252F/L277M/L47V/N218K/R201C/S177A/T338N/V244T/V317L)
T3 construct: expressed in transfected cells; host or cells: HEK293
T3 sequence (Q8NH00 with tags, fused parts or gaps L47V/C83S/A104M/F135L/S177A/R201C/G202R/N218K/V244T/I245V/L252F/G259R/L277M/V317L/T338N/E340G/A342V): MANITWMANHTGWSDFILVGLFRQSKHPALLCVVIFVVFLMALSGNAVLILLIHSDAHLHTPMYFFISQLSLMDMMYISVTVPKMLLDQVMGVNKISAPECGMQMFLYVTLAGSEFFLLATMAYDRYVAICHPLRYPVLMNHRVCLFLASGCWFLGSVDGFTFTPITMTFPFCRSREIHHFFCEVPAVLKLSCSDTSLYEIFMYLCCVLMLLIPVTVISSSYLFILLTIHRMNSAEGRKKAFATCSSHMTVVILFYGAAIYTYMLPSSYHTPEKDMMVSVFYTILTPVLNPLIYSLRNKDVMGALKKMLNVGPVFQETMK
Protocol: as §1, §2

consensus OR11H2 = biological target: T4, consensus OR11H2 (Homo sapiens, UniProt Q8NH07, A157T/A61V/C266F/D203A/E289A/F213L/F41L/F62C/G242R/I210T/I230L/I288V/I49T/K181M/K238L/L128F/L146H/L162I/M76I/N106T/N25R/P269S/Q137R/Q308R/Q30L/R68Q/S246A/S268G/T131A/T283A/T37K/V63A/Y156C); details: in the presence of a copper ion
T4 construct: expressed in transfected cells; host or cells: HEK293
T4 sequence (Q8NH07 12-326 N25R/Q30L/T37K/F41L/I49T/A61V/F62C/V63A/R68Q/M76I/N106T/L128F/T131A/Q137R/L146H/Y156C/A157T/L162I/K181M/D203A/I210T/F213L/I230L/K238L/G242R/S246A/C266F/S268G/P269S/T283A/I288V/E289A/Q308R): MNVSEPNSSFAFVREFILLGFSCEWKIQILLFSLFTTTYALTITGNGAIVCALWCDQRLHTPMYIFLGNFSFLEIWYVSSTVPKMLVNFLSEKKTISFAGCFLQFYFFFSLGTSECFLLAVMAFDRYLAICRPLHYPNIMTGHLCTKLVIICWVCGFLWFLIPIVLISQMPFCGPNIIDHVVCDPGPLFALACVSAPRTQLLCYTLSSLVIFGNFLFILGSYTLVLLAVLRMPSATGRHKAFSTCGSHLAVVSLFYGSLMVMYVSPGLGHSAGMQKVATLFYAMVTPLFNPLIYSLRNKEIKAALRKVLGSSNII
Protocol: as §1, §2

consensus OR4C15 = biological target: T5, consensus OR4C15 (Homo sapiens, UniProt Q8NGM1, A218G/A270V/E23K/G63A/I200A/I247V/I275T/L152F/L222F/L266F/M197L/N174D/N209I/N278T/Q295N/R137W/R299K/T258A/T88R/V55G/V87E/W233R)
T5 construct: Flag (N); Rho tag (N); expressed in transfected cells; host or cells: HEK293
T5 sequence (Q8NGM1 1-311 with the stated changes limits assumed): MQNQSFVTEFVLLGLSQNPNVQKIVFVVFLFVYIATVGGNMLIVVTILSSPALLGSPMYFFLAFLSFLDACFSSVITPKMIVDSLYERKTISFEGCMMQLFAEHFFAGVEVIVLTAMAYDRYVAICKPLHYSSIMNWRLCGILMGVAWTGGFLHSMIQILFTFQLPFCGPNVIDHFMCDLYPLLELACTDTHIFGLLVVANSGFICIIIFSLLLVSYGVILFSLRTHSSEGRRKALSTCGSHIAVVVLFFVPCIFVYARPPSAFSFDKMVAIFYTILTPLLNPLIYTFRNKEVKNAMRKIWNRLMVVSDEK
Protocol: as §1, §2

[1] = in the presence of a copper ion
[2] = read-out: EC50(μM) with 30 μM CuCl2; consensus OR2T11; 30 μM CuCl2

Compound	EC50 (consensus OR2T29)	dose dependence of the response of consensus OR2T29 (consensus OR2T29; [1])	response of consensus OR2T29 (consensus OR2T29; [1])	dose dependence of the response of consensus OR2T11 (consensus OR2T11; [1])	response of consensus OR2T11 (consensus OR2T11; [1])	EC50 (consensus OR2T11; [2])	EC50 (consensus OR2T4)	dose dependence of the response of consensus OR2T4 (consensus OR2T4; [1])	response of consensus OR2T4 (consensus OR2T4; [1])	response of consensus OR11H2 (consensus OR11H2)	response of consensus OR4C15 (consensus OR4C15; [1])	EC50 (consensus OR2T11; consensus OR2T11; 30 μM CuCl2; read-out: EC50(μM) with 30 μM CuCl2)	EC50 (consensus OR4C15)	dose dependence of the response of consensus OR4C15 (consensus OR4C15; [1])
CS [methyl mercaptan]	85 µM	dose-dependent response	responded	dose-dependent response	responded	5 µM	340 µM	dose-dependent response	responded	responded	responded	–	–	–
CSSSC [dimethyl trisulfide]	–	–	responded	dose-dependent response	responded	–	–	–	responded	responded	responded	26 µM	–	–
CSSC [dimethyl disulfide]	–	–	responded	dose-dependent response	responded	246 µM	–	–	responded	responded	responded	–	615 µM	dose-dependent response
